Data as given in US20130245006A1, “NOVEL INDOLIZINE DERIVATIVES, AND PREPARATION AND THERAPEUTIC USE THEREOF” (SANOFI, priority 2010, published 2013).
Converted amounts (≈) assume the structure as drawn. Counter-ions that a name gives are not always drawn.

Assay: Solubility by HPLC relative to a reference sample
Type: physicochemical
Settings: aqueous buffer, phosphate buffer, at the pH given
Description: The evaluation of the solubility of the compounds of the invention is carried out at pH 4 (using a phosphate buffer, […]) by HPLC using an H2O/CH3CN/CH3SO3H gradient, relative to a reference sample (a dilute solution of the product to be evaluated which serves as an internal control). The solubility S results are expressed in mg/ml. Generally, the compounds of the present invention have a solubility S≧4 mg/ml at pH≧4. Among them, mention may be made of the solubilities of the following compounds in the table below: […]

Structure (SMILES) | solubility [µg/mL]
CCCCc1cc2cc(C(=O)N3CCC[C@H]3C(=O)OC)ccn2c1C(=O)c1ccc(CCCN(CCCC)CCCC)cc1 [Compound No. 2, (S)-1-{2-Butyl-3-[4-(3-dibutylamino-propyl)benzoyl]indolizine-7-carbonyl}-pyrrolidine-2-carboxylic acid methyl ester] | 6300 (≈ 10.5 mM)
CCCCc1cc2cc(C(=O)N(CC)CCC(=O)O)ccn2c1C(=O)c1ccc(CCCN(CCCC)CCCC)cc1 [Compound No. 7, 3-({2-Butyl-3-[4-(3-dibutylaminopropyl)benzoyl]indolizine-7-carbonyl}ethylamino)propionic acid] | 7200 (≈ 12.2 mM)
CCc1cc2cc(C(=O)N(CC(=O)OC)C(C)C)ccn2c1C(=O)c1ccc(CCCC2(NC)CCCC2)cc1 [Compound No. 16, [(2-Ethyl-3-(4-[3-(1-methylaminocyclopentyl)propyl]benzoyl}indolizine-7-carbonyl)isopropylamino]acetic acid methyl ester] | 630 (≈ 1.15 mM)
CCc1cc2cc(C(=O)N(CC)Cc3nnn(C)n3)ccn2c1C(=O)c1ccc(CCC(C)(C)NC(C)(C)C)cc1 [Compound No. 18, 3-[4-(3-tert-Butylamino-3-methylbutyl)benzoyl]-2-ethylindolizine-7-carboxylic acid ethyl(2-methyl-2H-tetrazol-5-ylmethyl)amide] | 7880 (≈ 14.1 mM)
CCCCc1cc2cc(C(=O)N(CC)CC(=O)OCC)ccn2c1C(=O)c1ccc(CCCN(CCCC)CCCC)cc1 [compound 26, ({2-Butyl-3-[4-(3-dibutylamino-propyl)benzoyl]indolizine-7-carbonyl}ethylamino)acetic acid ethyl ester] | 1140 (≈ 1.89 mM)
CCCCc1cc2cc(C(=O)N(CC)CC(=O)OC)ccn2c1C(=O)c1ccc(CCCN(CCCC)CCCC)cc1 [Compound No. 5, ({2-Butyl-3-[4-(3-dibutylaminopropyl)benzoyl]indolizine-7-carbonyl}ethylamino)acetic acid methyl ester] | 5900 (≈ 10 mM)
CCc1cc2cc(C(=O)N(CC)Cc3nnn(C)n3)ccn2c1C(=O)c1ccc(CCCNC(C)(C)C)cc1 [Compound No. 17, 3-[4-(3-tert-Butylaminopropyl)benzoyl]-2-ethylindolizine-7-carboxylic acid ethyl(2-methyl-2H-tetrazol-5-ylmethyl)amide] | 8230 (≈ 15.5 mM)
CCCCc1cc2cc(C(=O)N(CC)Cc3nnn(C)n3)ccn2c1C(=O)c1ccc(CCCN(CCCC)CCCC)cc1 [Compound No. 9, 2-Butyl-3-[4-(3-dibutylaminopropyl)benzoyl]indolizine-7-carboxylic acid ethyl(2-methyl-2H-tetrazol-5-ylmethyl)amide] | 7220 (≈ 11.8 mM)
CCc1cc2cc(C(=O)N(CC(=O)OC)C(C)C)ccn2c1C(=O)c1ccc(CCC(C)(C)NC2CCCC2)cc1 [Compound No. 19, ({3-[4-(3-Cyclopentylamino-3-methylbutyl)benzoyl]-2-ethylindolizine-7-carbonyl}isopropylamino)acetic acid methyl ester] | 7200 (≈ 12.9 mM)
CCc1cc2cc(C(=O)N(CC(=O)OC)C(C)C)ccn2c1C(=O)c1ccc(CCCNC2CCCC2)cc1 [Compound No. 8, ({3-[4-(3-Cyclopentylaminopropyl)benzoyl]-2-ethylindolizine-7-carbonyl}isopropylamino)acetic acid methyl ester] | 4900 (≈ 9.22 mM)
CCCCc1cc2cc(C(=O)N(CC)Cc3nc(C)no3)ccn2c1C(=O)c1ccc(CCCN(CCCC)CCCC)cc1 [Compound No. 10, 2-Butyl-3-[4-(3-dibutylaminopropyl)benzoyl]indolizine-7-carboxylic acid ethyl(3-methyl-[1,2,4]oxadiazol-5-ylmethyl)amide] | 4980 (≈ 8.11 mM)
CCCCc1cc2cc(C(=O)N(CC)CCOC(C)C)ccn2c1C(=O)c1ccc(CCCN(CCCC)CCCC)cc1 [compound 23, 2-Butyl-3-[4-(3-dibutylaminopropyl)benzoyl]indolizine-7-carboxylic acid ethyl(2-isopropoxyethyl)amide] | 6170 (≈ 10.2 mM)
CCCCc1cc2cc(C(=O)N(CC)Cc3nnn[nH]3)ccn2c1C(=O)c1ccc(CCCN(CCCC)CCCC)cc1 [Compound No. 11, 2-Butyl-3-[4-(3-dibutylaminopropyl)benzoyl]indolizine-7-carboxylic acid ethyl(1H-tetrazole-5-ylmethyl)amide] | 240 (≈ 0.4 mM)
CCCCc1cc2cc(C(=O)N(CC)CC(=O)O)ccn2c1C(=O)c1ccc(CCCN(CCCC)CCCC)cc1 [Compound No. 6, ({2-Butyl-3-[4-(3-dibutylaminopropyl)benzoyl]indolizine-7-carbonyl}ethylamino)acetic acid] | 4900 (≈ 8.51 mM)

Now from value to compound:

solubility [µg/mL] | Structure (SMILES)
2800 (≈ 5.39 mM) | CCc1cc2cc(C(=O)N(CC(=O)OC)C(C)C)ccn2c1C(=O)c1ccc(CCCNC(C)(C)C)cc1 [compound 31, ({3-[4-(3-tert-Butylaminopropyl)benzoyl]-2-ethylindolizine-7-carbonyl}isopropylamino)acetic acid methyl ester]
8020 (≈ 14 mM) | CCc1cc2cc(C(=O)N(CC(=O)OC)C(C)C)ccn2c1C(=O)c1ccc(CCCC2(NC(C)C)CCCC2)cc1 [compound 79, [(2-Ethyl-3-{4-[3-(1-isopropylamino-cyclopentyl)propyl]benzoyl}indolizine-7-carbonyl)isopropylamino]acetic acid methyl ester]
8820 (≈ 16.5 mM) | CCc1cc2cc(C(=O)N(CC(=O)OC)C(C)C)ccn2c1C(=O)c1ccc(CCCN(CC)C(C)C)cc1 [compound 55, [(2-Ethyl-3-{4-[3-(ethylisopropylamino)propyl]benzoyl}indolizine-7-carbonyl)isopropylamino]acetic acid methyl ester]
4200 (≈ 7.96 mM) | CCCCc1cc2cc(C(=O)N(CC)Cc3nc(C)no3)ccn2c1C(=O)c1ccc(C2CCNCC2)cc1 [compound 80, 2-Butyl-3-(4-piperidin-4-ylbenzoyl)indolizine-7-carboxylic acid ethyl(3-methyl-[1,2,4]oxadizol-5-ylmethyl)amide]
8980 (≈ 16.9 mM) | CCc1cc2cc(C(=O)N3CCC[C@@]3(C)C(=O)OC)ccn2c1C(=O)c1ccc(CCCNC(C)(C)C)cc1 [compound 50, (S)-1-{3-[4-(3-tert-Butylaminopropyl)benzoyl]-2-ethylindolizine-7-carbonyl}-2-methylpyrrolidine-2-carboxylic acid methyl ester]
5720 (≈ 9.47 mM) | CCCCc1cc2cc(C(=O)N(CC)[C@@H](C)C(=O)OC)ccn2c1C(=O)c1ccc(CCCN(CCCC)CCCC)cc1 (stereo in doubt) [compound 69, (S)-2-({2-Butyl-3-[4-(3-dibutylaminopropyl)benzoyl]indolizine-7-carbonyl}ethyl-amino)propionic acid methyl ester]
5700 (≈ 9.02 mM) | CCCCc1cc2cc(C(=O)N(CC(=O)OC(C)C)C(C)C)ccn2c1C(=O)c1ccc(CCCN(CCCC)CCCC)cc1 [compound 59, ({2-Butyl-3-[4-(3-dibutylaminopropyl)-benzoyl]indolizine-7-carbonyl}-isopropylamino)acetic acid isopropyl ester]
8400 (≈ 15.7 mM) | CCCCc1cc2cc(C(=O)N(CC(=O)O)C(C)C)ccn2c1C(=O)c1ccc(CCCN(CC)CC)cc1 [compound 75, ({2-Butyl-3-[4-(3-diethylamino-propyl)benzoyl]indolizine-7-carbonyl}isopropylamino)acetic acid]
8930 (≈ 16.3 mM) | CCCN(CCC)CCCc1ccc(C(=O)c2c(CC)cc3cc(C(=O)N(CC(=O)OC)C(C)C)ccn23)cc1 [compound 61, ({3-[4-(3-Dipropylamino-propyl)benzoyl]-2-ethylindolizine-7-carbonyl}isopropylamino)acetic acid methyl ester]
6200 (≈ 12.3 mM) | CCc1cc2cc(C(=O)N(CC(=O)O)C(C)C)ccn2c1C(=O)c1ccc(CCCNC(C)(C)C)cc1 [compound 76, ({3-[4-(3-tert-Butylamino-propyl)benzoyl]-2-ethylindolizine-7-carbonyl}isopropylamino)acetic acid]
1570 (≈ 2.88 mM) | CCc1cc2cc(C(=O)N(CC(=O)OC)C(C)C)ccn2c1C(=O)c1ccc(CCCNC2CCCCC2)cc1 [compound 35, ({3-[4-(3-Cyclohexylaminopropyl)benzoyl]-2-ethylindolizine-7-carbonyl}isopropylamino)acetic acid methyl ester]
2420 (≈ 4.01 mM) | CCCCc1cc2cc(C(=O)N(CC(=O)OC)C(C)C)ccn2c1C(=O)c1ccc(CCCN(CCCC)CCCC)cc1 [compound 28, ({2-Butyl-3-[4-(3-dibutylamino-propyl)benzoyl]indolizine-7-carbonyl}isopropyl-amino)acetic acid methyl ester]
6300 (≈ 10.7 mM) | CCCCN(CCCC)CCCc1ccc(C(=O)c2c(CC)cc3cc(C(=O)N(CC)CC(=O)OC(C)C)ccn23)cc1 [compound 58, ({3-[4-(3-Dibutylamino-propyl)benzoyl]-2-ethylindolizine-7-carbonyl}ethyl-amino)acetic acid isopropyl ester]
8300 (≈ 15.2 mM) | CCCCN(CCCC)CCCc1ccc(C(=O)c2ccc3cc(C(=O)N(CC(=O)OC)C(C)C)ccn23)cc1 [compound 56, ({3-[4-(3-Dibutylamino-propyl)benzoyl]indolizine-7-carbonyl}isopropyl-amino)acetic acid methyl ester]
5300 (≈ 9.2 mM) | CCCCc1cc2cc(C(=O)N(CC(=O)OC)C(C)C)ccn2c1C(=O)c1ccc(CCCN(CC)CCCC)cc1 [compound 62, [(2-Butyl-3-{4-[3-(butylethylamino)propyl]benzoyl}indolizine-7-carbonyl)isopropylamino]acetic acid methyl ester]

Assay: not given
Settings: not given

melting point [°C] | Structure (SMILES)
172 | CCc1cc2cc(C(=O)N(CC)Cc3nnn(C)n3)ccn2c1C(=O)c1ccc(CCCNC(C)(C)C)cc1 (as salt: hydrochloride) [Compound No. 17, 3-[4-(3-tert-Butylaminopropyl)benzoyl]-2-ethylindolizine-7-carboxylic acid ethyl(2-methyl-2H-tetrazol-5-ylmethyl)amide]
